Reference: ChEMBL document CHEMBL1131351, “Nonsteroidal progesterone receptor antagonists based on a conformationally-restricted subseries of 6-aryl-1,2-dihydro-2,2,4-trimethylquinolines” (Bioorg Med Chem Lett, 1998)

Columns and labels:
Progesterone receptor [1] = biological target: T1, Progesterone receptor (Homo sapiens, UniProt P06401); experiment: Binding affinity against human progesterone receptor-A (hPR-A)
T1 sequence (P06401 whole entry): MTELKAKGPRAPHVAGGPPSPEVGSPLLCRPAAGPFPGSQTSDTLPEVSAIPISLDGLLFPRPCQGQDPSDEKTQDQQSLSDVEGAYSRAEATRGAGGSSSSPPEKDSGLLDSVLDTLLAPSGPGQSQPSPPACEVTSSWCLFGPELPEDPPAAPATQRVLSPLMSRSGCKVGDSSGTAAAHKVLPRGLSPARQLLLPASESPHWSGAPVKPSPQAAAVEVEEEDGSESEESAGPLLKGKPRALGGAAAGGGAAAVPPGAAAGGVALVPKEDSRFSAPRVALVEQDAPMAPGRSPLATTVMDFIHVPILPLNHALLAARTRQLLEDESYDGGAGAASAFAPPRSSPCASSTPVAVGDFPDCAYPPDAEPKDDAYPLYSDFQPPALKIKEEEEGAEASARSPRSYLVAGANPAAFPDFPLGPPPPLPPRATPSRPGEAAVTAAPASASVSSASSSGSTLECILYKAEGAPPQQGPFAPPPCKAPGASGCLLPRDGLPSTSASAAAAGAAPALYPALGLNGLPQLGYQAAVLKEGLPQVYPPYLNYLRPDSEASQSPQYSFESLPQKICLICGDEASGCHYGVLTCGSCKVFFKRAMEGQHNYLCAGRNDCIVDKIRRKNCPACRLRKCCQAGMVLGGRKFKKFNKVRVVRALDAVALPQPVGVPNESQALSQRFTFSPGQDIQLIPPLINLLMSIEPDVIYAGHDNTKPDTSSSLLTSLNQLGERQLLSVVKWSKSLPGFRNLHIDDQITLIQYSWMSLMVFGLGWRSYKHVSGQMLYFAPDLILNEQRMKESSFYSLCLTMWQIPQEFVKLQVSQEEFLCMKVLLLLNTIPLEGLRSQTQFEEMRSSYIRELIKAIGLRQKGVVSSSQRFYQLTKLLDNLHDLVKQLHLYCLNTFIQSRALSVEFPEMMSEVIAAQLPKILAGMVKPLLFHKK

Progesterone receptor [2] = biological target: T1, Progesterone receptor; experiment: Antagonist activity against human progesterone receptor B (hPR-B) in co-transfected CV-1 cells; type: functional, cell-based
Progesterone receptor [3] = biological target: T1, Progesterone receptor; experiment: Agonistic activity against human progesterone receptor B (hPR-B) in co-transfected CV-1 cells; type: functional, cell-based

Row | Compound | Ki (Progesterone receptor [1]) | IC50 (Progesterone receptor [2]) | EC50 (Progesterone receptor [3])
1 | CC1=CC(C)(C)Nc2cc3c(cc21)-c1c(F)cc(F)cc1C3O (configuration not stated) | 0.0255 µM | 0.08 µM | 
2 | CC1=CC(C)(C)Nc2ccc3c(oc4ccccc43)c21 | 0.077 µM | 1.14 µM | 
3 | CC1=CC(C)(C)Nc2cc3c(cc21)-c1c(F)ccc(F)c1C3 | 0.0031 µM | 0.146 µM | 
4 | CC1=CC(C)(C)Nc2cc3c(cc21)-c1ccc(Br)cc1C3C (configuration not stated) | > 10 µM | 10 µM | 
5 | CC1=CC(C)(C)Nc2cc3c(c(F)c21)-c1ccc(F)cc1C3OC(=O)C(F)(F)F (configuration not stated) | 0.0625 µM | 0.046 µM | 
6 | CC1=CC(C)(C)Nc2cc3oc4ccccc4c3cc21 | 0.184 µM | 1.85 µM | 
7 | CC1=CC(C)(C)Nc2cc3c(cc21)-c1c(F)cccc1C3O (configuration not stated) | 0.449 µM | 0.099 µM | 
8 | CC1=CC(C)(C)Nc2cc3c(cc21)-c1ccc([N+](=O)[O-])cc1C3 | 0.0036 µM | 0.09 µM | 
9 | CC1=CC(C)(C)Nc2cc3c(cc21)-c1ccc(Cl)cc1C3 | 0.029 µM | 0.248 µM | 
10 | CC1=CC(C)(C)Nc2cc3c(c(F)c21)-c1ccc(F)cc1C3(C)O (configuration not stated) | > 10 µM | 10 µM | 
11 | CC1=CC(C)(C)Nc2cc3c(cc21)-c1cc(F)cc(F)c1C3O (configuration not stated) | 0.202 µM | 0.074 µM | 
12 | CC1=CC(C)(C)Nc2ccc3c(c21)Cc1cc([N+](=O)[O-])c(F)cc1-3 | 0.097 µM | 3.33 µM | 
13 | CC1=CC(C)(C)Nc2cc3c(cc21)-c1ccccc1C3 | 0.014 µM | 0.22 µM | 
14 | CC1=CC(C)(C)Nc2cc3[nH]c4ccccc4c3cc21 | 0.113 µM | 0.059 µM | 
15 | CC1=CC(C)(C)Nc2ccc3c(c21)Cc1cc([N+](=O)[O-])ccc1-3 | 0.057 µM | 1.67 µM | 
16 | CC1=CC(C)(C)Nc2cc3c(cc21)-c1cc(F)c([N+](=O)[O-])cc1C3 | 0.0019 µM | 0.1 µM | 
17 | CC1=CC(C)(C)Nc2cc3c(c(Cl)c21)-c1ccccc1C3O (configuration not stated) | 0.0531 µM | 0.163 µM | 
18 | CCCCn1c2ccccc2c2ccc3c(c21)C(C)=CC(C)(C)N3 | 0.077 µM | 0.416 µM | 
19 | CC1=CC(C)(C)Nc2cc(F)c3c(c21)Cc1cc(F)ccc1-3 | 0.0209 µM | 5.68 µM | 
20 | CC1=CC(C)(C)Nc2cc3c(c(F)c21)-c1ccc(F)cc1C3 | 0.0015 µM |  | 0.65 µM

Row | Compound | Ki (Progesterone receptor [1]) | IC50 (Progesterone receptor [2]) | EC50 (Progesterone receptor [3])
21 | CC1=CC(C)(C)Nc2ccc3c(c21)Cc1cc(Br)ccc1-3 | 0.2 µM | 2.33 µM | 
22 | CC1=CC(C)(C)Nc2cc3c(cc21)-c1ccc(Br)cc1C3 | 0.024 µM | 0.434 µM | 
23 | CC1=CC(C)(C)Nc2cc3c(cc21)-c1c(F)cccc1C3=O | 0.0291 µM | 0.158 µM | 
24 | CC1=CC(C)(C)Nc2cc3c(c(F)c21)-c1ccc(F)cc1C3=O | > 10 µM | 0.365 µM | 
25 | CC1=CC(C)(C)Nc2cc3c(cc21)-c1ccc(Br)cc1C3O (configuration not stated) | 1.86 µM | 3.44 µM | 
26 | CCn1c2ccccc2c2ccc3c(c21)C(C)=CC(C)(C)N3 | 0.169 µM | 0.284 µM | 
27 | CC1=CC(C)(C)Nc2ccc3c(c21)Cc1c(F)cccc1-3 | 0.0155 µM | 0.496 µM | 
28 | CC1=CC(C)(C)Nc2cc3c(cc21)-c1cccc(CO)c1C3 | 0.0124 µM | 10 µM | 
29 | CC1=CC(C)(C)Nc2ccc3c(c21)Cc1ccccc1-3 | 0.013 µM | 0.549 µM | 
30 | CC1=CC(C)(C)Nc2cc3c(cc21)-c1ccc(F)cc1C3 | 0.0035 µM |  | 
31 | CC1=CC(C)(C)Nc2cc(F)c3c(c21)C(O)c1cc(F)ccc1-3 (configuration not stated) | 2.58 µM | 10 µM | 
32 | CC(=O)c1ccc2c(c1)Cc1cc3c(cc1-2)C(C)=CC(C)(C)N3 | 0.176 µM | 0.164 µM | 
33 | CC1=CC(C)(C)Nc2cc3c(cc21)-c1ccccc1C3O (configuration not stated) | 0.483 µM | 0.609 µM | 
34 | CC1=CC(C)(C)Nc2cc3c(cc21)-c1ccc(F)cc1C3O (configuration not stated) | 0.101 µM | 0.122 µM | 
35 | CC1=CC(C)(C)Nc2cc3c(cc21)-c1ccc(Br)cc1C3Cc1ccccc1 (configuration not stated) | > 10 µM | 10 µM | 
36 | CC1=CC(C)(C)Nc2cc3c(cc21)-c1cccc(F)c1C3 | 0.0023 µM | 1.77 µM | 
37 | CC1CC(C)(C)Nc2cc3c(cc21)-c1ccccc1C3 (configuration not stated) | 0.087 µM | 0.424 µM | 
38 | CC1=CC(C)(C)Nc2ccc3c([nH]c4ccccc43)c21 | > 1 µM | 0.662 µM | 
39 | CC1=CC(C)(C)Nc2cc3c(cc21)-c1ccccc1C3=O | 3.55 µM | 0.353 µM | 
